Test results published in patent publication US20260226025A1, “PHARMACEUTICALLY ACCEPTABLE SALT AND CRYSTAL FORM OF TRIAZOLE COMPOUND, AND PREPARATION METHOD THEREFOR” (JIANGSU HENGRUI PHARMACEUTICALS CO., LTD., priority 2023, published 2026).

Tests used:
Assay type in all cases: physicochemical
[1] = DVS (dynamic vapor sorption) hygroscopicity test
Description: The MS analyses were performed using an Agilent 1200/1290 DAD-6110/6120 Quadrupole MS liquid chromatography-mass spectrometry system (manufacturer: Agilent; MS model: 6110/6120 Quadrupole MS), waters ACQuity UPLC-QD/SQD (manufacturer: waters; MS model: waters ACQuity Qda Detector/waters SQ Detector), and THERMO Ultimate 3000-Q Exactive (manufacturer: THERMO; MS model: THERMO Q 15 Exactive). The HPLC analyses were performed using an Agilent 1260DAD high pressure liquid chromatograph (Sunfire C18 150×4.6 mm chromatography column) and a Thermo U3000 high pressure liquid chromatograph (Gimini C18 150× 4.6 mm chromatography column). XRPD refers to X-ray powder diffraction: The analysis was performed using a BRUKER D8 X-ray diffractometer; specific acquisition information: a Cu anode (40 kV, 40 mA), ray: monochromatic Cu-Ka ray (1=1.5418 Å). Scan mode: θ/2θ; scan range: 3-48°. DSC refers to differential scanning calorimetry: The analysis was performed using a METTLER TOLEDO DSC 3+ differential scanning calorimeter, with a temperature ramp rate of 10° C./min, specific temperature ranges shown in corresponding patterns (mostly 25° C.-300° C.), and a nitrogen purge speed of 50 mL/min. TGA refers to thermogravimetric analysis: The analysis was performed using a METTLER TOLEDO TGA 2 thermogravimetric analyzer, with a temperature ramp rate of 10° C./min, specific temperature ranges shown in corresponding patterns (mostly 30° C.-400° C.), and a nitrogen purge speed of 50 mL/min. DVS refers to dynamic vapor sorption: Surface Measurement Systems instrinsic was adopted; the humidity started at 50%, the humidity range of the investigation was 0%-95%, and the humidity was increased in increments of 10%; the criterion was as follows: each gradient mass change dM/dT≤0.002%; TMAX 360 min, two cycles.

[2] = Influencing factor stability study (open containers; light, high temperature, high humidity)
Description: Samples of the free-state crystal forms A and B of the compound represented by formula I were spread in open containers and left to stand under light exposure (4500 Lux), high temperature (40° C. and 60° C.), and high humidity (RH 75% and RH 93%) conditions for 1 month to study their stability.
Samples of the crystal forms I and II of the sodium salt of the compound represented by formula I were spread in open containers and left to stand under light exposure (4500 Lux), high temperature (40° C. and 60° C.), and high humidity (RH 75%) conditions for 1 month to study their stability.

[3] = Long-term/accelerated stability; settings: for Crystal form / Purity %: listed as Free-state crystal form A

hygroscopic weight gain ([1]; accelerated experimental conditions, 70% RH): about 0.20%
crystal form re-identified after the DVS test ([1]; after DVS test): its crystal form did not change
hygroscopic weight gain ([1]; extreme conditions, 90% RH): about 0.37%
hygroscopic weight gain ([1]; normal storage conditions, 25° C. and 60% RH): about 0.17%
Crystal form ([2]; 40° C., 1 month): Crystal form A
Purity % ([2]; 40° C., 1 month): 98.6%
Crystal form ([2]; 40° C., 7 days): Crystal form A
Purity % ([2]; 40° C., 7 days): 98.6%
Crystal form ([2]; 40° C., 14 days): Crystal form A
Purity % ([2]; 40° C., 14 days): 98.6%
Crystal form ([2]; 60° C., 1 month): Crystal form A
Purity % ([2]; 60° C., 1 month): 98.6%
Crystal form ([2]; 60° C., 7 days): Crystal form A
Purity % ([2]; 60° C., 7 days): 98.6%
Crystal form ([2]; 60° C., 14 days): Crystal form A
Purity % ([2]; 60° C., 14 days): 98.6%
Crystal form ([2]; 75% RH, 1 month): Crystal form A
Purity % ([2]; 75% RH, 1 month): 98.6%
Crystal form ([2]; 75% RH, 7 days): Crystal form A
Purity % ([2]; 75% RH, 7 days): 98.6%
Crystal form ([2]; 75% RH, 14 days): Crystal form A
Purity % ([2]; 75% RH, 14 days): 98.6%
Crystal form ([2]; 93% RH, 1 month): Crystal form A
Purity % ([2]; 93% RH, 1 month): 98.6%
Crystal form ([2]; 93% RH, 7 days): Crystal form A
Purity % ([2]; 93% RH, 7 days): 98.6%
Crystal form ([2]; 93% RH, 14 days): Crystal form A
Purity % ([2]; 93% RH, 14 days): 98.6%
Crystal form ([2]; 4500 Lux, 1 month): Crystal form A
Purity % ([2]; 4500 Lux, 1 month): 97.0%
Crystal form ([2]; 4500 Lux, 7 days): Crystal form A
Purity % ([2]; 4500 Lux, 7 days): 98.3%
Crystal form ([2]; 4500 Lux, 14 days): Crystal form A
Purity % ([2]; 4500 Lux, 14 days): 98.1%
Crystal form ([2]; Initial, 0 days): Crystal form A
Purity % ([2]; Initial, 0 days): 98.6%
physical and chemical stability (conclusion) ([2]; standing for 1 month, influencing factor conditions): good physical and chemical stability
Crystal form ([3]; 25° C./60% RH, 1 month): Crystal form A
Purity % ([3]; 25° C./60% RH, 1 month): 98.6%
Crystal form ([3]; 25° C./60% RH, 2 months): Crystal form A
Purity % ([3]; 25° C./60% RH, 2 months): 98.6%
Crystal form ([3]; 25° C./60% RH, 3 months): Crystal form A
Purity % ([3]; 25° C./60% RH, 3 months): 98.6%
Crystal form ([3]; 25° C./60% RH, 6 months): Crystal form A
Purity % ([3]; 25° C./60% RH, 6 months): 98.6%
Crystal form ([3]; 40° C./75% RH, 1 month): Crystal form A
Purity % ([3]; 40° C./75% RH, 1 month): 98.6%
Crystal form ([3]; 40° C./75% RH, 2 months): Crystal form A
Purity % ([3]; 40° C./75% RH, 2 months): 98.6%
Crystal form ([3]; 40° C./75% RH, 3 months): Crystal form A
Purity % ([3]; 40° C./75% RH, 3 months): 98.6%
Crystal form ([3]; 40° C./75% RH, 6 months): Crystal form A
Purity % ([3]; 40° C./75% RH, 6 months): 98.6%
Crystal form ([3]; Initial, 0): Crystal form A
Purity % ([3]; Initial, 0): 98.6%
physical and chemical stability (conclusion) ([3]; long-term accelerated conditions for 6 months): good physical and chemical stability
Compound: COCc1ccnc(OCc2c(-c3ccc(O[C@H]4C[C@@H]5CC[C@H](C(=O)O)[C@@H]5C4)c(C)n3)nnn2C)n1 [Crystal form A, (1S,3aS,5S,6aR)-5-((6-(5-(((4-(methoxymethyl)pyrimidin-2-yl)oxy)methyl)-1-methyl-1H-1,2,3-triazol-4-yl)-2-methylpyridin-3-yl)oxy) octahydropentalene-1-carboxylic acid]
